From US8178530B2, “Imidazolopyrazine compounds useful for the treatment of degenerative and inflammatory diseases” (Janssen Pharmaceutica NV, priority 2006, dated 2012)

Key:
[1] = system: TNFα release by human PBMCs; experiment: Cytokine release by LPS-stimulated human PBMCs (TNFα ELISA); assay type: cell-based; settings: PBMC, LPS 1 μg/mL, 24 hr
Protocol: Human peripheral blood mononuclear cells (PBMCs) are isolated from “buffy coats” prepared from the blood of healthy volunteers, isolated essentially according to method of Bøyum (1984). In brief, buffy coat is diluted 1:1 with 1×PBS (Gibco) and 30 mL is carefully put on top of 20 mL Lymphoprep™ (Lucron Bioproducts) in 50 mL Falcon tubes. After centrifugation (35 min, 400 g, 18° C.) the mononuclear cells are collected from the white interphase and washed 3 times with 1×PBS by resuspending and centrifugation (10 min, 200 g). Isolated PBMCs are finally resuspended in RPMI 1640 (Cat. No. 21875, Gibco) that is supplemented with 10% heat-inactivated FBS (Hyclone).
For the assay PBMCs are seeded at 2.5E6 cells/mL in 160 μL in 96-well plates (Nunc). Serial dilution of the test compounds are made first in DMSO (Sigma) and then diluted 50-fold in M199 medium (Gibco) containing 1% heat-inactivated FBS. Compounds are further 1/10 diluted in the assay plates to obtain final DMSO concentration of 0.2%. Cells are preincubated with the compounds for 1 hr at 37° C., 5% CO2. Then, cells are stimulated with LPS (Escherichia coli serotype 026:B6, Cat. No. L2654, Sigma) that is added in a volume of 20 μL to a final concentration of 1 μg/mL and cells are further cultured for 24 hr. The plates are centrifuged and the supernatant is collected and stored at −80° C. until analysis of appropriate dilutions in ELISAs.
The following 384-well chemiluminescent ELISA protocol was developed to measure TNFα levels in the supernatant: White Lumitrac 600 384-well plates (Greiner) are coated with (40 μL/well) anti-TNFα capture antibody (Cat. No. 551220, BD Pharmingen) that is diluted to 1 μg/mL in 1×PBS (Gibco). After overnight incubation at 4° C., plates are washed with 1×PBS (80 g NaCl, 2 g KCl (Sigma), 11.5 g Na2HPO4.7H2O and 2 g KH2PO4 in 10 L milliQ; pH 7.4) and blocked with 100 μL/well buffer B (1×PBS containing 1% BSA (Sigma), 5% sucrose (Sigma) and 0.05% NaN3 (Sigma)). After 4 hr incubation at RT, blocking buffer is removed and plates are washed once with PBST (1×PBS with 0.05% Tween-20 (Sigma)). Then, 40 μL of sample is transferred to the ELISA plates and plates are incubated at 4° C. Next day, plates are washed 3 times (twice with PBST and once with PBS) and 35 μL/well biotinylated anti-TNFα antibody (Cat. No. 554511, BD Pharmingen) diluted first to a concentration of 250 ng/ml in buffer D (1×PBS with 1% BSA) is added. After 2 h of incubation at RT, plates are washed as described above and 35 μL/well of a 1/2000 dilution of streptavidin-HRP conjugate (Cat. No. SNN2004, Biosource) in buffer D is added. After 45 min, plates are washed as described above and incubated for 5 min with 50 μL/well BM Chemiluminescence ELISA Substrate POD (Roche). Readout is performed on the Luminoscan Ascent Luminometer (Labsystems) with an integration time of 100 msec delivering raw data (RLU: relative luminescence units). The following controls are included in the experiments, a maximal signal control, in which the cells are activated by LPS but only the 0.2% DMSO vehicle (and thus no compound) is added. This control indicates the maximal level of TNFα that can be achieved in the test. A minimal signal control is also included in these experiments. Here, cells are not triggered. This control returns the basal TNFα levels produced by the PBMCs. The percent inhibition (PIN) of the TNFα release, achieved by the compounds is then calculated based on the RLU data returned by the ELISA with following formula: 100−[((TNFα level compound X at concentration Y−minimal TNFα levels)/(maximal TNFα levels−minimal TNFα levels))×100]. Where compounds are tested at 8 concentrations (1/3 serial dilution), EC50-values can be calculated by curve fitting of the means of the PIN data achieved for a compound at each test concentration. […]

MAPKAPK5 = biological target: T1, MAPKAPK5 (Homo sapiens, UniProt Q8IW41); experiment: MAPKAP-K5 assay (FlashPlate, 33P-ATP); assay type: biochemical; settings: 0.6 μM ATP, 30 minutes at room temperature
T1 construct: 1 mU MAPKAP-K5
T1 sequence (Q8IW41 1-473): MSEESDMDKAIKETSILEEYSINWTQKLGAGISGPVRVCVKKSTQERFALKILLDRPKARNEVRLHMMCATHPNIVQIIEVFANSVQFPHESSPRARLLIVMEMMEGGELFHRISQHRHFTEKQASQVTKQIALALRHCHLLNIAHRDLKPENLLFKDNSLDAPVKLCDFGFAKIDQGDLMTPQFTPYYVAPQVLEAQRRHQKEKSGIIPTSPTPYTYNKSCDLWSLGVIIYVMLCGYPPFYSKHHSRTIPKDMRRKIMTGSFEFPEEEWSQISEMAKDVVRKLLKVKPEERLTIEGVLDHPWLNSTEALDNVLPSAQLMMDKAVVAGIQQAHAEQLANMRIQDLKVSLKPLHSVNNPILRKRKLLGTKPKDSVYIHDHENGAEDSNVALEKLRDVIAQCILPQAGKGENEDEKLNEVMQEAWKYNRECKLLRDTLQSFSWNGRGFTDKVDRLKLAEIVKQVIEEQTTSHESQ
Protocol: 3 μM MAPKAP-K5 peptide substrate

| SMILES | EC50 [1] | IC50 (MAPKAPK5) |
| --- | --- | --- |
| CN1CCN(c2ccc(Nc3ncc(-c4csc(C(N)=O)c4)n4ccnc34)cc2)CC1 [Compound 118] | > 1000 nM | 101 to 500 nM |
| CN1CCN(c2ccc(Nc3ncc(-c4ccc(C(N)=O)nc4)n4ccnc34)cc2)CC1 [Compound 129, 5-{8-[4-(4-Methyl-piperazin-1-yl)-phenylamino]-imidazo[1,2-a]pyrazin-5-yl}-pyridine-2-carboxylic acid amide] | > 1000 nM | > 1000 nM |
| C[C@@H]1CN(C)[C@@H](C)CN1c1ccc(Nc2ncc(-c3ccc(C(N)=O)cc3)n3ccnc23)cc1 [Compound 137] | > 1000 nM | 101 to 500 nM |
| c1cn2c(-c3c[nH]cn3)cnc(Nc3ccc(N4CCOCC4)cc3)c2n1 [Compound 163] | > 1000 nM | > 1000 nM |
| O=C1NCc2cc(-c3cnc(Nc4ccc(N5CCOCC5)cc4)c4nccn34)sc21 [Compound 198, 2-[8-(4-Morpholin-4-yl-phenylamino)-imidazo[1,2-a]pyrazin-5-yl]-4,5-dihydro-thieno[2,3-c]pyrrol-6-one] | > 1000 nM | 101 to 500 nM |
| CN1CCN(c2ccc(Nc3ncc(-c4ccc(C(N)=O)o4)n4ccnc34)cc2)CC1 [Compound 139, 5-{8-[4-(4-Methyl-piperazin-1-yl)-phenylamino]-imidazo[1,2-a]pyrazin-5-yl}-furan-2-carboxylic acid amide] | > 1000 nM | > 1000 nM |
| CC(C)N1CCN(c2ccc(Nc3ncc(-c4ccc(C(N)=O)cc4)n4ccnc34)cc2)CC1 [Compound 142] | > 1000 nM | > 1000 nM |
| O=C(Nc1ccccc1)c1ccc(Nc2ncc(-c3cn[nH]c3)n3ccnc23)cc1 [Compound 41] | > 1000 nM | > 1000 nM |
| C[C@@H]1CN(c2ccc(Nc3ncc(-c4csc(C(N)=O)c4)n4ccnc34)cc2)[C@@H](C)CN1C [Compound 186] | > 1000 nM | 101 to 500 nM |
| CN(C)Cc1cc(Nc2ncc(-c3cn[nH]c3)n3ccnc23)ccc1N1CCOCC1 [Compound 218, (3-Dimethylaminomethyl-4-morpholin-4-yl-phenyl)-[5-(1H-pyrazol-4-yl)-imidazo[1,2-a]pyrazin-8-yl]-amine] | > 1000 nM | > 1000 nM |
| NC(=O)c1cnc(-c2cnc(Nc3ccc(N4CCOCC4)cc3)c3nccn23)s1 [Compound 158, 2-[8-(4-Morpholin-4-yl-phenylamino)-imidazo[1,2-a]pyrazin-5-yl]-thiazole-5-carboxylic acid amide] | 101 to 500 nM | > 1000 nM |
| O=C(NCc1cccnc1)c1ccc(Nc2ncc(-c3cn[nH]c3)n3ccnc23)cc1 [Compound 35] | 501 to 1000 nM | 501 to 1000 nM |
| NC(=O)c1ncc(-c2cnc(Nc3ccc(N4CCOCC4)cc3)c3nccn23)s1 [Compound 173, 5-[8-(4-Morpholin-4-yl-phenylamino)-imidazo[1,2-a]pyrazin-5-yl]-thiazole-2-carboxylic acid amide] | > 1000 nM | > 1000 nM |
| CN1CCN(c2ccc(Nc3ncc(-c4cn[nH]c4)n4ccnc34)cc2)CC1 [Compound 14] | > 1000 nM | > 1000 nM |
| CN(C)C(CNC(=O)c1ccc(Nc2ncc(-c3cc[nH]c(=O)c3)n3ccnc23)cc1)c1cccnc1 (stereo not shown) [Compound 114] | > 1000 nM | 101 to 500 nM |
| O=C(NCCc1cccnc1)c1ccc(Nc2ncc(-c3cn[nH]c3)n3ccnc23)cc1 [Compound 93] | > 1000 nM | 101 to 500 nM |

| SMILES | EC50 [1] | IC50 (MAPKAPK5) |
| --- | --- | --- |
| NC(=O)c1ccc(-c2cnc(Nc3ccc(-n4ccnc4)cc3)c3nccn23)cc1 [Compound 167] | 1 to 100 nM | > 1000 nM |
| CNC(=O)c1ccc(-c2cnc(Nc3ccc(N4CCN(C)CC4)cc3)c3nccn23)cc1 [Compound 116] | > 1000 nM | > 1000 nM |
| C[C@@H]1CN(c2ccc(Nc3ncc(-c4ccc(C(N)=O)cc4)n4ccnc34)cc2)C[C@H](C)N1C [Compound 155] | > 1000 nM | > 1000 nM |
| CN1CCN(c2ccc(Nc3ncc(-c4ccc(C(N)=O)cc4)n4ccnc34)cc2F)CC1 [Compound 171, 4-{8-[3-Fluoro-4-(4-methyl-piperazin-1-yl)-phenylamino]-imidazo[1,2-a]pyrazin-5-yl}-benzamide] | > 1000 nM | > 1000 nM |
| C[C@@H]1CN(c2ccc(Nc3ncc(-c4cc(F)c(C(N)=O)c(F)c4)n4ccnc34)cc2)[C@@H](C)CN1C [Compound 181] | > 1000 nM | 101 to 500 nM |
| CC(C)N1CCN(c2ccc(Nc3ncc(-c4ccc5c(c4)CNC5=O)n4ccnc34)cc2)CC1 [Compound 205, 5-{8-[4-(4-Isopropyl-piperazin-1-yl)-phenylamino]-imidazo[1,2-a]pyrazin-5-yl}-2,3-dihydro-isoindol-1-one] | > 1000 nM | 1 to 100 nM |
| CC(C)N1CCN(c2ccc(Nc3ncc(-c4cc(F)c(C(N)=O)c(F)c4)n4ccnc34)cc2)CC1 [Compound 193] | > 1000 nM | 501 to 1000 nM |
| NC(=O)c1ccc(Nc2ncc(-c3cn[nH]c3)n3ccnc23)cc1 [Compound 11] | > 1000 nM | 101 to 500 nM |
| NC(=O)c1ccc(-c2cnc(Nc3ccc(-c4cccnc4)cc3)c3nccn23)cc1 [Compound 153] | 1 to 100 nM | > 1000 nM |
| O=C(NCc1ccc(O)cc1)c1ccc(Nc2ncc(-c3cn[nH]c3)n3ccnc23)cc1 [Compound 90, N-(4-Hydroxybenzyl)-4-[5-(1H-pyrazol-4-yl)imidazo[1,2-a]pyrazin-8-ylamino]benzamide] | > 1000 nM | 501 to 1000 nM |
| NC(=O)c1ccc(-c2cnc(Nc3ccc(N4CCCCC4)cc3)c3nccn23)cc1 [Compound 144] | 1 to 100 nM | > 1000 nM |
| NS(=O)(=O)c1ccc(Nc2ncc(-c3cn[nH]c3)n3ccnc23)cc1 [Compound 36] | > 1000 nM | 101 to 500 nM |
| CN1CCN(c2ccc(Nc3ncc(-c4ccc(C(N)=O)cc4)n4ccnc34)cc2Cl)CC1 [Compound 136, 4-{8-[3-Chloro-4-(4-methyl-piperazin-1-yl)-phenylamino]-imidazo[1,2-a]pyrazin-5-yl}-benzamide] | 101 to 500 nM | 101 to 500 nM |
| O=C1NCc2cc(-c3cnc(Nc4cccnc4)c4nccn34)ccc21 [Compound 197] | > 1000 nM | 101 to 500 nM |
| CCNCCNC(=O)c1ccc(Nc2ncc(-c3cn[nH]c3)n3ccnc23)cc1 [Compound 56] | > 1000 nM | 101 to 500 nM |
| CC(C)N1CCN(c2ccc(Nc3ncc(-c4ccc5c(c4)CNC5=O)n4ccnc34)cn2)CC1 [Compound 210, 5-{8-[6-(4-Isopropyl-piperazin-1-yl)-pyridin-3-ylamino]-imidazo[1,2-a]pyrazin-5-yl}-2,3-dihydro-isoindol-1-one] | > 1000 nM | 1 to 100 nM |
